Read-outs that look alike come from different tables or passages of the source.
Key:
iAChSnFR (iAChSnFR0.9) = settings: 200 nM soluble purified sensor
X513-OpuBC = assay: isothermal titration calorimetry; type: binding, Thermoanaerobacter sp. X513; settings: 25 °C, PBS, single experiment
iAChSnFR0.4 = assay: fluorescence titration of purified sensor; type: binding, Thermoanaerobacter sp.; settings: read-out: apparent Kd; 200 nM purified sensor
y-iAChSnFR = settings: 200 nM purified sensor

`CC(=O)OCC[N+](C)(C)C` [acetylcholine] showed a Kd (iAChSnFR (iAChSnFR0.9); read-out: apparent Kd) of 1.3 ± 1 µM, a Kd (X513-OpuBC; fit with fixed N = 1) of 95 µM and a Kd (iAChSnFR0.4) of 220 ± 16 µM. The Kd (y-iAChSnFR) was 0.5 µM.
`C[N+](C)(C)CCO` [choline] gave a Kd (iAChSnFR (iAChSnFR0.9); read-out: apparent Kd) of 45 ± 1.1 µM, a Kd (X513-OpuBC; variable stoichiometry fit, N = 0.55) of 8 µM and a Kd (y-iAChSnFR) of 20 µM.
In the case of `NCCc1c[nH]c2ccc(O)cc12` [serotonin], the Kd (iAChSnFR (iAChSnFR0.9); read-out: affinity) is reported as > 1000 µM.
